In patent US20160144021A1, “Vaccine Composition And Method Of Use” (MEDIMMUNE, LLC, priority 2013, published 2016):

Legend:
[1] = tested on: F-derived CD8 peptide (KYKNAVTEL); assay: CD8 IFNγ ELISPOT of splenocytes, 1x RSV seropositive BALB/c mice; format: in vivo
Protocol: Systemic cellular immune responses to vaccination were evaluated in representative animals at Day 10 post vaccination. Additional representative animals were recalled with a viral challenge at Day 69 and evaluated for long-term cellular immune responses at Day 73, 4 days post viral challenge. For each of the groups, 3-5 individual splenocyte samples were prepared. CD4 T-cell readouts were assessed by multiplexed cytokine analysis of supernatant levels of a panel of secreted cytokines (including IFNγ, IL-5, IL-10, IL-13, and IL-17) following a 72-hour restimulation period with RSV sF. CD8 T-cell readouts were assessed by 2 methods: ELISPOT counts of IFNγ-secreting cells following a 36-48 hour restimulation period with an F-derived CD8 peptide ([…] aa 85-93) (SEQ ID NO: 12) and intracellular staining and quantification of the percentage of F-specific polyfunctional (IFNγ+ TNFα+IL-2+) CD8 T cells following a 5-hour restimulation period with the F-derived CD8 peptide.

[2] = tested on: IL-5, IL-13, IFNγ, IL-17, eotaxin; assay: Cytokines in lung homogenates after RSV challenge, naive BALB/c mice; format: in vivo; parameters: pulmonary eotaxin levels (mean): unit not given here
Protocol: Lung homogenates were clarified by centrifugation prior to use. […] F-specific splenic cytokine production was determined by subtracting media alone values from F stimulated values.

[3] = lung homogenates 4 days post RSV challenge

Substance: RSV sF: RSV soluble F protein, amino acids 1-524 of the RSV A2 F sequence lacking the transmembrane domain, given without adjuvant
- F-specific CD8 IFNγ ELISPOT response ([1]; Day 10 post vaccination, highest dose (10 μg) RSV sF): 224 SFU/million
- F-specific CD8 IFNγ ELISPOT response (mean) ([1]; Day 10 post vaccination, range across RSV sF doses 0.4-10 μg): 72-224 SFU/million
- recall F-specific CD8 IFNγ ELISPOT response (means) ([1]; Day 73, 4 days post RSV challenge, range across RSV sF doses): 62-243 SFU/million
- mean IFNγ to IL-5 ratio in lung homogenates ([2]; 4 days post RSV challenge, ratio >1.0 = more Th1-type): 0.3
- IL-5 and IL-13 in the lungs [2, 3]: detected
- pulmonary eotaxin levels (mean) [2, 3]: 911
